{"source": "patent US10793599B2", "about": "“MPHOSPH1-derived peptide, and vaccine including same” (OncoTherapy Science, Inc., priority 2015, dated 2020)", "key": {"[1]": {"test_system": "COS7 cells expressing MPHOSPH1 and HLA-A*33:03", "test": "IFN-gamma production of CTL clone against target cells expressing MPHOSPH1 and HLA-A*33:03", "type": "cell-based, African green monkey", "procedure": "(§1) Peptide-pulsed C1R-A33 (1×10^4 cells/well) was prepared as the target cell. The IFN-gamma ELISPOT assay and IFN-gamma ELISA assay were performed according to the assay kit manufacturer's manual.\nA cDNA encoding the MPHOSPH1 or HLA-A*33:03 gene was amplified by PCR. The PCR-amplified product was each incorporated into an expression vector. Either or both of the MPHOSPH1 gene-expressing vector and the HLA-A*33:03 gene-expressing vector were introduced into COS7, which is a cell line negative for HLA, using Lipofectamine 2000 (Invitrogen). On the day after gene introduction, COS7 cells were detached and harvested using versene (Invitrogen), and used as the target cell for confirmation of IFN-gamma production (5×10^4 cells/well)."}, "[2]": {"test_system": "peptide-pulsed C1R-A33", "test": "In vitro CTL induction, IFN-gamma ELISPOT assay (HLA-A*33:03)", "type": "cell-based, human", "conditions": "CD8 positive T cells of HLA-A*33:03-positive donors after three stimulations with peptide-pulsed DCs; against peptide-pulsed C1R-A33; listed as MPHOSPH1-A33-9-608", "procedure": "Monocyte-derived dendritic cells (DCs) were used as the antigen-presenting cell to induce a specific cytotoxic T lymphocyte (CTL) response against peptides presented on human leukocyte antigens (HLAs). As already reported in literatures, DCs were generated in vitro (Nakahara S et al., Cancer Res 2003, 63(14): 4112-8). Specifically, peripheral-blood mononuclear cells (PBMCs) collected from healthy volunteers (HLA-A*33:03-positive) with the Ficoll-Paque plus solution (Pharmacia) were seeded in plastic tissue culture dishes (Corning) to let the monocytes in the PBMCs adhere to the dishes. This was cultured in the presence of 1000 IU/ml granulocyte macrophage colony-stimulating factor (R&D System) and 1000 IU/ml interleukin (IL)-4 (R&D System) for seven days. An AIM-V medium (Invitrogen) containing 5% inactivated AB-type serum (ABS) was used as the medium. DCs that were induced to differentiate from monocytes using the cytokines were pulsed with 20 micro-g/ml of each synthesized peptide (37 degrees C., three hours). Peptide pulsing was carried out in an AIM-V medium containing 3 micro-g/ml beta 2-microglobulin. These peptide-pulsed DCs were inactivated by X-ray irradiation (20 Gy), mixed in a 1:20 ratio with autologous CD8 positive T cells obtained by positive selection using the CD8 Positive Isolation Kit (Invitrogen) (1.5×10^4 DCs and 3×10^5 CD8 positive T cells), and cultured in a 48-well plate (Corning). Each well contained 0.5 ml of the 5% ABS/AIM-V medium, and IL-7 (R&D System) was added there (final concentration: 10 ng/ml). Two days after the start of the culture, IL-2 (Novartis) was added (final concentration: 20 IU/ml). On day 7 and day 14 of culture, the CD8 positive T cells were further stimulated with peptide-pulsed DCs. The DCs were prepared at the time of use by the same method as above. After day 21 (after three DC stimulations), IFN-gamma production against the peptide-pulsed C1R-A33 was confirmed using human interferon (IFN)-gamma enzyme-linked immunospot (ELISPOT) assay (Tanaka H et al., Br J Cancer 2001, 84(1): 94-9; Umano Y et al., Br J Cancer 2001, 84(8): 1052-7: Uchida N et al., Clin Cancer Res 2004, 10(24): 8577-86; Suda T et al., Cancer Sci 2006, 97(5): 411-9; Watanabe T et al., Cancer Sci 2005, 96(8): 498-506).\nas §1"}, "[3]": {"test_system": "peptide-pulsed C1R-A33", "test": "IFN-gamma ELISA of CTL lines and CTL clones (HLA-A*33:03)", "type": "cell-based, human", "conditions": "listed as MPHOSPH1-A33-9-608", "procedure": "CTLs were propagated using methods similar to those reported by Riddell et al. (Walter E A et al., N Engl J Med 1995, 333(16): 1038-44; Riddell S R et al., Nat Med 1996, 2(2): 216-23). The CTLs were cultured in 25 ml 5% ABS/AIM-V medium together with two types of Mitomycin C-treated human B lymphoblastoid cell lines (5×10^6 cells/25 ml medium each) and an anti-CD3 antibody (final concentration: 40 ng/ml). On the day after beginning of the culturing, IL-2 (final concentration: 120 IU/ml) was added to the culture. On days 5, 8 and 11, the medium was changed to a 5% ABS/AIM-V medium containing IL-2 (final concentration: 30 IU/ml) (Tanaka H et al., Br J Cancer 2001, 84(1): 94-9; Umano Y et al., Br J Cancer 2001, 84(8): 1052-7; Uchida N et al., Clin Cancer Res 2004, 10(24): 8577-86; Suda T et al., Cancer Sci 2006, 97(5): 411-9; Watanabe T et al., Cancer Sci 2005, 96(8): 498-506).\nAfter induction of CTLs in vitro, the CTLs were seeded onto 96 round-bottomed microtiter plates (Nalge Nunc International) at 1 cell/well or 10 cells/well. The CTLs were cultured with two types of Mitomycin C-treated human B lymphoblastoid cell lines (1×10^4 cells/well each) in a total of 150 micro-l/well 5% ABS/AIM-V medium with an anti-CD3 antibody (final concentration: 30 ng/ml) and IL-2 (final concentration: 125 IU/ml). Ten days later, 50 micro-l 5% ABS/AIM-V medium containing 500 IU/ml IL-2 was added to the culture.\nas §1"}}, "note": "Entries after “also recorded” stand apart in the source; their conditions may differ.", "data": [{"sequence": "EFTQYWAQR (a peptide derived from MPHOSPH1) [SEQ ID NO: 118]", "values": [{"measurement": "IFN-gamma production of peptide-specific CTL clone", "setting": "[1]; against COS7 cells expressing both MPHOSPH1 and HLA-A*33:03", "value": "showed IFN-gamma production"}, {"measurement": "IFN-gamma production of peptide-specific CTL clone", "setting": "[1]; against negative control COS7 cells expressing either one of MPHOSPH1 and HLA-A*33:03, listed as MPHOSPH1-A33-9-608", "value": "a significant IFN-gamma production was not shown; also recorded: a significant IFN-gamma production was not observed"}, {"measurement": "peptide-specific IFN-gamma production (ELISPOT)", "setting": "[2]", "value": "Peptide-specific IFN-gamma production was observed"}, {"measurement": "peptide-specific IFN-gamma production of CTL clone (ELISA)", "setting": "[3]; CTL clone by limiting dilution, against C1R-A33 pulsed with the peptide", "value": "showed a peptide-specific IFN-gamma production"}, {"measurement": "IFN-gamma production by CTL line (ELISA)", "setting": "[3]; CTL line against C1R-A33 pulsed with the peptide", "value": "CTL lines that produce IFN-gamma in a peptide-specific manner were established; also recorded: observed"}]}]}
